This note sets out measurements from ChEMBL document CHEMBL1201862, “PubChem BioAssay data set” (2004).

One may read the GI50 as the concentration giving 50% growth inhibition.

Structures are written as SMILES.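 Cells were grown in 96-well plates and exposed to each compound for 48 hours at five concentrations; endpoints were interpolated linearly between bracketing concentrations, or set to the highest concentration if not reached. Abbreviation: GI50, concentration required for 50% inhibition of growth.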 The source made the active and inactive calls. No stated cut-off is given here; in the data, active = GI50 up to about 1.1 µM and inactive = higher.

Some test systems named below: ACHN; CAKI-1; HCT-15; KM12; NCI-H460; NCI-H522; RPMI-8226; SK-MEL-28; SK-MEL-5; TK-10; U-251; UACC-62; EKVX; OVCAR-4; RXF 393; SF-268.
Common to all, as to assay: DTP human tumour cell line panel, 48 h

Regarding `O=C1/C(=C/c2ccc(Cl)cc2)CNC/C1=C\c1ccc(Cl)cc1`, the GI50 in the experiment on ACHN was 2.07 µM (inactive); in the experiment with CAKI-1, 2.44 µM (inactive); in the experiment on HCT-15, 1.62 µM; with KM12, 1.44 µM (inactive); in the experiment on NCI-H460, 2.11 µM (inactive); in the experiment with NCI-H522 it was 2.02 µM (inactive). Also, the GI50 with RPMI-8226 was 0.267 µM (active); with SK-MEL-28, 1.82 µM (inactive); with SK-MEL-5, 6.73 µM (inactive); with TK-10, 4.06 µM (inactive); in the experiment on U-251, 1.36 µM (inactive); with UACC-62, 2.07 µM (inactive).

For the compound `CC(C)(C)c1cc(Cc2ccc([N+](C)(C)C)cc2)c(O)c(C(C)(C)C)c1`, the GI50 with ACHN was > 100 µM (inactive); in the experiment on CAKI-1, 63.8 µM (inactive); in the experiment with EKVX, 30.2 µM (inactive); in the experiment on HCT-15, more than 100 µM; with KM12 it was 15.7 µM (inactive); with NCI-H460 it was 18.6 µM (inactive). The GI50 in the experiment with OVCAR-4 is 30.1 µM (inactive); with RPMI-8226, 14.8 µM (inactive); in the experiment on RXF 393 it was 16.4 µM (inactive); in the experiment on SF-268, 15 µM (inactive); with SK-MEL-28, 12.5 µM (inactive); in the experiment on SK-MEL-5 it was 10.6 µM (inactive). Also, the results for the GI50 with TK-10, in the experiment with U-251 and with UACC-62 were 24.6 µM (inactive), 12.7 µM (inactive) and 14.3 µM (inactive), respectively.

Regarding `COc1ccc(S(=O)(=O)NNS(C)(=O)=O)cc1`, the GI50 with ACHN is > 100 µM (inactive); in the experiment on CAKI-1 it was > 100 µM (inactive); in the experiment on EKVX, > 100 µM (inactive); with HCT-15, more than 10 µM; with KM12, > 100 µM (inactive); in the experiment on NCI-H522, > 100 µM (inactive). In addition, the GI50 in the experiment on OVCAR-4, in the experiment on RPMI-8226, in the experiment on RXF 393, in the experiment with SF-268, in the experiment on SK-MEL-5 and in the experiment on TK-10 was > 100 µM (inactive) throughout. Also, the GI50 in the experiment with U-251 and in the experiment with UACC-62 was > 100 µM (inactive) each time.

On to `CCOC(=O)C1=C(C(=O)OCC)C2c3ccccc3C=CN2C(C(=O)OCC)=C(SC)S1` (stereo not given), for which the GI50 was > 100 µM (inactive) with ACHN; > 100 µM (inactive) with CAKI-1; > 100 µM (inactive) in the experiment on EKVX; 79.8 µM in the experiment with HCT-15; > 100 µM (inactive) with NCI-H460; 24.4 µM (inactive) in the experiment with NCI-H522. Further, the GI50 was 17.8 µM (inactive) in the experiment with RPMI-8226; 73.1 µM (inactive) in the experiment with RXF 393; > 100 µM (inactive) in the experiment on SF-268; > 100 µM (inactive) in the experiment on SK-MEL-28; 32.4 µM (inactive) with SK-MEL-5; > 100 µM (inactive) with TK-10. The values for the GI50 in the experiment with U-251 and in the experiment with UACC-62 were 50.7 µM (inactive) and 58.1 µM (inactive), respectively.

With `CNC(=S)OCCC(C)CCCC(C)C` (stereo not given), the GI50 in the experiment on ACHN was 18.8 µM (inactive); in the experiment on CAKI-1 it was 17.1 µM (inactive); with EKVX, 17.1 µM (inactive); with HCT-15 it was 14.7 µM; in the experiment with KM12, 14.4 µM (inactive); in the experiment on NCI-H460, 18.7 µM (inactive). For the same compound, the GI50 with OVCAR-4 was 16.7 µM (inactive); in the experiment on RPMI-8226, 10.8 µM (inactive); with RXF 393, 16.2 µM (inactive); in the experiment with SF-268 it was 17 µM (inactive); in the experiment on SK-MEL-28 it was 24.7 µM (inactive); in the experiment on SK-MEL-5, 17.5 µM (inactive). Moreover, the GI50 in the experiment with TK-10 was 12.8 µM (inactive); in the experiment with U-251, 15.5 µM (inactive); with UACC-62, 15.5 µM (inactive).

For `COc1ccc(CC(=O)c2cc(OC)c(OC)cc2C)cc1OC`, the GI50 in the experiment with ACHN is 29.4 µM (inactive); in the experiment on CAKI-1, > 100 µM (inactive); with EKVX, 63 µM (inactive); in the experiment with HCT-15, 46.5 µM; in the experiment with KM12, > 100 µM (inactive); in the experiment with NCI-H460 it was > 100 µM (inactive). Moreover, the GI50 with NCI-H522 was 38 µM (inactive); with OVCAR-4, 29.3 µM (inactive); in the experiment with RPMI-8226 it was 65.3 µM (inactive); with SF-268, 89.3 µM (inactive); in the experiment with SK-MEL-28, 81.3 µM (inactive); in the experiment on SK-MEL-5, 24.9 µM (inactive). In addition, the GI50 in the experiment with TK-10 is > 100 µM (inactive); with U-251, > 100 µM (inactive); with UACC-62, 38 µM (inactive).
